Laboratory results: the supplement of paper PMC11061612

What was measured:
Olaparib = compound: O=C(c1cc(Cc2n[nH]c(=O)c3ccccc23)ccc1F)N1CCN(C(=O)C2CC2)CC1 [Olaparib]; conditions: max 10 µM
How it was run: (§1)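 Cancer cell lines were dosed for 72 hours (final DMSO typically 0.2%) after 24 hours at 37°C and 5% CO2 in 1536-well plates containing 7.5 μl DMEM/F12 or RPMI with 10% FBS. Viability came from CellTiter-Glo 2.0 luminescence, scaled between blank-well and DMSO-well means, and dose responses were fitted to a two-parameter logistic curve with a non-linear mixed effects model. The single-agent IC50 was obtained from this fit.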

Selumetinib = compound: Cn1cnc2c(F)c(Nc3ccc(Br)cc3Cl)c(C(=O)NOCCO)cc21 [Selumetinib]; conditions: max 10 µM
How it was run: as §1

AZD2811 = compound: CCN(CCO)CCCOc1ccc2c(Nc3cc(CC(=O)Nc4cccc(F)c4)[nH]n3)ncnc2c1 [AZD2811]; conditions: max 1 µM
How it was run: as §1

SG3199 = compound: CC1=CN2[C@@H](C1)C=NC3=CC(=C(C=C3C2=O)OC)OCCCCCOC4=C(C=C5C(=C4)N=C[C@@H]6CC(=CN6C5=O)C)OC [SG3199]; conditions: max 0.001 µM
How it was run: as §1

Trametinib = compound: CC(=O)Nc1cccc(-n2c(=O)n(C3CC3)c(=O)c3c(Nc4ccc(I)cc4F)n(C)c(=O)c(C)c32)c1 [Trametinib]; conditions: max 1 µM
How it was run: as §1

Palbociclib = compound: CC(=O)c1c(C)c2cnc(Nc3ccc(N4CCNCC4)cn3)nc2n(C2CCCC2)c1=O [Palbociclib]; conditions: max 10 µM
How it was run: as §1

Doxorubicin = compound: COc1cccc2c1C(=O)c1c(O)c3c(c(O)c1C2=O)C[C@@](O)(C(=O)CO)C[C@@H]3O[C@H]1C[C@H](N)[C@H](O)[C@H](C)O1 [Doxorubicin]; conditions: max 1 µM
How it was run: as §1

Taselisib = compound: Cc1nc(-c2cn3c(n2)-c2ccc(-c4cnn(C(C)(C)C(N)=O)c4)cc2OCC3)n(C(C)C)n1 [Taselisib]; conditions: max 10 µM
How it was run: as §1

AZD6738 = compound: C[C@@H]1COCCN1C2=NC(=NC(=C2)C3(CC3)[S@](=N)(=O)C)C4=C5C=CNC5=NC=C4 [AZD6738]; conditions: max 10 µM
How it was run: as §1

AZD0156 = compound: CN(C)CCCOc1ccc(-c2ccc3ncc4c(c3c2)n(C2CCOCC2)c(=O)n4C)cn1 [AZD0156]; conditions: max 3 µM
How it was run: as §1

Prexasertib = compound: COc1cccc(OCCCN)c1-c1cc(Nc2cnc(C#N)cn2)n[nH]1 [Prexasertib]; conditions: max 1 µM
How it was run: as §1

Venetoclax = compound: CC1(C)CCC(CN2CCN(c3ccc(C(=O)NS(=O)(=O)c4ccc(NCC5CCOCC5)c([N+](=O)[O-])c4)c(Oc4cnc5[nH]ccc5c4)c3)CC2)=C(c2ccc(Cl)cc2)C1 [Venetoclax]; conditions: max 1 µM
How it was run: as §1

AZD4320 = compound: CN(CC[C@H](CSC1=CC=CC=C1)NC2=C(C=C(C=C2)S(=O)(=O)NC(=O)C3=CC=C(C=C3)N4CCC(CC4)[C@H](C5=CC=CC=C5C6=CC=C(C=C6)Cl)O)S(=O)(=O)C(F)(F)F)CCO [AZD4320]; conditions: max 1 µM
How it was run: as §1

AZD5991 = compound: Cc1c2c(nn1C)CSCc1cc(n(C)n1)CSc1cc(c3ccccc3c1)OCCCc1c(C(=O)O)n(C)c3c-2c(Cl)ccc13 [AZD5991]; conditions: max 1 µM
How it was run: as §1

SN-38 = compound: CCc1c2c(nc3ccc(O)cc13)-c1cc3c(c(=O)n1C2)COC(=O)[C@]3(O)CC [SN-38]; conditions: max 0.3 µM
How it was run: as §1

AZD1775 = compound: C=CCn1c(=O)c2cnc(Nc3ccc(N4CCN(C)CC4)cc3)nc2n1-c1cccc(C(C)(C)O)n1 [AZD1775]; conditions: max 3 µM
How it was run: as §1

Dasatinib = compound: CC1=C(C(=CC=C1)Cl)NC(=O)C2=CN=C(S2)NC3=CC(=NC(=N3)C)N4CCN(CC4)CCO [Dasatinib]; conditions: max 2 µM
How it was run: as §1

Alisertib = compound: COc1cc(Nc2ncc3c(n2)-c2ccc(Cl)cc2C(c2c(F)cccc2OC)=NC3)ccc1C(=O)O [Alisertib]; conditions: max 10 µM
How it was run: as §1

AZD1390 = compound: CC(C)n1c(=O)n(C)c2cnc3cc(F)c(-c4ccc(OCCCN5CCCCC5)nc4)cc3c21 [AZD1390]; conditions: max 0.3 µM
How it was run: as §1

Crizotinib = compound: C[C@@H](Oc1cc(-c2cnn(C3CCNCC3)c2)cnc1N)c1c(Cl)ccc(F)c1Cl [Crizotinib]; conditions: max 10 µM
How it was run: as §1

AZD5153 = compound: COc1nnc2ccc(N3CCC(c4ccc(OCCN5CCN(C)C(=O)[C@H]5C)cc4)CC3)nn12 [AZD5153]; conditions: max 1 µM
How it was run: as §1

Capivasertib = compound: C1CN(CCC1(C(=O)N[C@@H](CCO)C2=CC=C(C=C2)Cl)N)C3=NC=NC4=C3C=CN4 [Capivasertib]; conditions: max 10 µM
How it was run: as §1

Savolitinib = compound: C[C@@H](c1ccc2nccn2c1)n1nnc2ncc(-c3cnn(C)c3)nc21 [Savolitinib]; conditions: max 1 µM
How it was run: as §1

AZD7648 = compound: Cc1cc2ncnn2cc1Nc1ncc2c(n1)n(C1CCOCC1)c(=O)n2C [AZD7648]; conditions: max 10 µM
How it was run: as §1

AZD8186 = compound: C[C@@H](Nc1cc(F)cc(F)c1)c1cc(C(=O)N(C)C)cc2c(=O)cc(N3CCOCC3)oc12 [AZD8186]; conditions: max 3 µM
How it was run: as §1

Gefitinib = compound: COc1cc2ncnc(Nc3ccc(F)c(Cl)c3)c2cc1OCCCN1CCOCC1 [Gefitinib]; conditions: max 10 µM
How it was run: as §1

Lapatinib = compound: CS(=O)(=O)CCNCc1ccc(-c2ccc3ncnc(Nc4ccc(OCc5cccc(F)c5)c(Cl)c4)c3c2)o1 [Lapatinib]; conditions: max 10 µM
How it was run: as §1

MK-2206 = compound: NC1(c2ccc(-c3nc4ccn5c(=O)[nH]nc5c4cc3-c3ccccc3)cc2)CCC1 [MK-2206]; conditions: max 10 µM
How it was run: as §1

Row | Cell Line | IC50, cell viability 72 h (Olaparib) | IC50, cell viability 72 h (Selumetinib) | IC50, cell viability 72 h (AZD2811) | IC50, cell viability 72 h (SG3199) | IC50, cell viability 72 h (Trametinib) | IC50, cell viability 72 h (Palbociclib) | IC50, cell viability 72 h (Doxorubicin) | IC50, cell viability 72 h (Taselisib) | IC50, cell viability 72 h (AZD6738) | IC50, cell viability 72 h (AZD0156) | IC50, cell viability 72 h (Prexasertib) | IC50, cell viability 72 h (Venetoclax) | IC50, cell viability 72 h (AZD4320) | IC50, cell viability 72 h (AZD5991) | IC50, cell viability 72 h (SN-38) | IC50, cell viability 72 h (AZD1775) | IC50, cell viability 72 h (Dasatinib) | IC50, cell viability 72 h (Alisertib) | IC50, cell viability 72 h (AZD1390) | IC50, cell viability 72 h (Crizotinib) | IC50, cell viability 72 h (AZD5153) | IC50, cell viability 72 h (Capivasertib) | IC50, cell viability 72 h (Savolitinib) | IC50, cell viability 72 h (AZD7648) | IC50, cell viability 72 h (AZD8186) | IC50, cell viability 72 h (Gefitinib) | IC50, cell viability 72 h (Lapatinib) | IC50, cell viability 72 h (MK-2206)
1 | OSC-20 (Oral Cavity Carcinoma) | > 10 µM | > 10 µM | > 1 µM | > 0.001 µM | > 1 µM | > 10 µM | > 1 µM | 9.68 µM | > 10 µM | > 3 µM | 0.458 µM | > 1 µM | > 1 µM | > 1 µM | 0.0404 µM | 1.22 µM | > 2 µM | > 10 µM | > 0.3 µM | > 10 µM | > 1 µM | > 10 µM | > 1 µM | > 10 µM | > 3 µM | > 10 µM | > 10 µM | –
2 | OVCAR-4 (Ovarian Carcinoma) | > 10 µM | > 10 µM | > 1 µM | > 0.001 µM | > 1 µM | > 10 µM | > 1 µM | > 10 µM | 6.93 µM | > 3 µM | 0.0574 µM | > 1 µM | > 1 µM | > 1 µM | > 0.3 µM | > 3 µM | > 2 µM | > 10 µM | > 0.3 µM | > 10 µM | > 1 µM | > 10 µM | > 1 µM | > 10 µM | > 3 µM | > 10 µM | > 10 µM | –
3 | PWR-1E (Non-Cancerous) | > 10 µM | > 10 µM | 0.827 µM | > 0.001 µM | > 1 µM | > 10 µM | > 1 µM | 7.81 µM | 2.82 µM | > 3 µM | 0.0281 µM | > 1 µM | > 1 µM | > 1 µM | 0.013 µM | 0.525 µM | 0.371 µM | 1.51 µM | > 0.3 µM | 8.5 µM | 0.343 µM | > 10 µM | > 1 µM | > 10 µM | > 3 µM | > 10 µM | > 10 µM | > 10 µM
4 | SCC-15 (Oral Cavity Carcinoma) | > 10 µM | > 10 µM | > 1 µM | > 0.001 µM | > 1 µM | > 10 µM | > 1 µM | 2 µM | > 10 µM | > 3 µM | 0.682 µM | > 1 µM | > 1 µM | > 1 µM | 0.0661 µM | > 3 µM | 1.36 µM | > 10 µM | > 0.3 µM | > 10 µM | > 1 µM | > 10 µM | > 1 µM | > 10 µM | > 3 µM | > 10 µM | > 10 µM | –
5 | SU8686 (Pancreatic Carcinoma) | > 10 µM | > 10 µM | > 1 µM | > 0.001 µM | > 1 µM | > 10 µM | > 1 µM | > 10 µM | > 10 µM | > 3 µM | 0.489 µM | > 1 µM | > 1 µM | > 1 µM | > 0.3 µM | > 3 µM | > 2 µM | > 10 µM | > 0.3 µM | > 10 µM | > 1 µM | > 10 µM | > 1 µM | > 10 µM | > 3 µM | > 10 µM | > 10 µM | –
6 | TE-1 (Esophageal Squamous Cell Carcinoma) | > 10 µM | > 10 µM | > 1 µM | > 0.001 µM | > 1 µM | > 10 µM | > 1 µM | 7.85 µM | > 10 µM | > 3 µM | 0.131 µM | > 1 µM | > 1 µM | > 1 µM | 0.157 µM | 2.22 µM | 0.393 µM | 6.09 µM | > 0.3 µM | > 10 µM | > 1 µM | > 10 µM | > 1 µM | > 10 µM | > 3 µM | > 10 µM | > 10 µM | –
7 | VA-ES-BJ (Other Solid Carcinomas) | > 10 µM | > 10 µM | > 1 µM | > 0.001 µM | > 1 µM | > 10 µM | 0.464 µM | 4.5 µM | 4.58 µM | > 3 µM | 0.118 µM | > 1 µM | > 1 µM | > 1 µM | 0.0188 µM | 3 µM | > 2 µM | 4.77 µM | > 0.3 µM | > 10 µM | > 1 µM | > 10 µM | > 1 µM | > 10 µM | > 3 µM | > 10 µM | > 10 µM | –
